This passage reports inhibition results from paper PMC4951600 (Iranian Journal of Basic Medical Sciences, 2016).

The test addresses mitochondrial ATP synthase (DNP-stimulated Mg2+-ATPase), rat heart mitochondria (Rattus norvegicus, UniProt P10719+P15999). The test is described as follows: phosphate release from ATP. Type of test: biochemical.

Sequence of mitochondrial ATP synthase (DNP-stimulated Mg2+-ATPase), rat heart mitochondria (P10719 47-529): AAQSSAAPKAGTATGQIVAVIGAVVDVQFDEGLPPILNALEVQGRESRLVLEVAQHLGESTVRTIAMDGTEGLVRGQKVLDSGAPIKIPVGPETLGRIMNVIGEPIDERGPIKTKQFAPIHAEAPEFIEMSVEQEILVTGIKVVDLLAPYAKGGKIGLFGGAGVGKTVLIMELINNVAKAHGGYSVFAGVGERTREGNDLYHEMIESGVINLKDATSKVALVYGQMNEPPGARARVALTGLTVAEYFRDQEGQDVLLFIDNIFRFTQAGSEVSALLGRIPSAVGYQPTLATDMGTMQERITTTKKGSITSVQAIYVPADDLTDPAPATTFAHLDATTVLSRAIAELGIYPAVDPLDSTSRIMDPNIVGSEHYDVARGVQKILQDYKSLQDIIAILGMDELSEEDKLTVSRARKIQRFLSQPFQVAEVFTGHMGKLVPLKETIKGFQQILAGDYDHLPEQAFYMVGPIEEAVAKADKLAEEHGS
Sequence of mitochondrial ATP synthase (DNP-stimulated Mg2+-ATPase), rat heart mitochondria (P15999 44-553): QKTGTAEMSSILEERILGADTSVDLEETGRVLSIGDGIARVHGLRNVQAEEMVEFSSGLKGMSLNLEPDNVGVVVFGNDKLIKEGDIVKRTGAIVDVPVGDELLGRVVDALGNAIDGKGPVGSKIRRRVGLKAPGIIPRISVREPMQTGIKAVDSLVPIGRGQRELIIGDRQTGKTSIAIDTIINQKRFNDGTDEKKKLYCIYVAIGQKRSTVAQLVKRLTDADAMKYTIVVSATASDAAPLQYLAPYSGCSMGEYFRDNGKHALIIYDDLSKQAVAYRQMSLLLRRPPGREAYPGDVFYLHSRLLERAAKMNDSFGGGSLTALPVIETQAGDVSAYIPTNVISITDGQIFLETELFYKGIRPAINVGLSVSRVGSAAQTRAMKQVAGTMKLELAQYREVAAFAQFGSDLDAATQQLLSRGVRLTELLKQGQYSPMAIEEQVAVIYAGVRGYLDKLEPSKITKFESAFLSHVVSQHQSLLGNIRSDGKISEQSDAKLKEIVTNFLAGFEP
Sequence of mitochondrial ATP synthase (DNP-stimulated Mg2+-ATPase), rat heart mitochondria (P35435 whole entry partner): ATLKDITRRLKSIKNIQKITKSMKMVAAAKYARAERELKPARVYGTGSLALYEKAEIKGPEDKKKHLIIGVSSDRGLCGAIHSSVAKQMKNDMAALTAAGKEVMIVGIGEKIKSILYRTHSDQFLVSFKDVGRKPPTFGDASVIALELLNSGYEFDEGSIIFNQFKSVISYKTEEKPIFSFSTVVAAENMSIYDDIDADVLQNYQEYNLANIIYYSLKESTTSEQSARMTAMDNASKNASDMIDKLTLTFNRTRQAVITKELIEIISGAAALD
Sequence of mitochondrial ATP synthase (DNP-stimulated Mg2+-ATPase), rat heart mitochondria (P35434 23-168 partner): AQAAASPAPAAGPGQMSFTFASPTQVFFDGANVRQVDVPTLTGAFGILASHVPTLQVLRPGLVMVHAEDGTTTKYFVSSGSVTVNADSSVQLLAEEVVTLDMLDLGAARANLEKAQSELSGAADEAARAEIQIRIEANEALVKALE
Sequence of mitochondrial ATP synthase (DNP-stimulated Mg2+-ATPase), rat heart mitochondria (P29418 2-51 partner): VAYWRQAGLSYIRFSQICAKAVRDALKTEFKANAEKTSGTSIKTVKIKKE
Sequence of mitochondrial ATP synthase (DNP-stimulated Mg2+-ATPase), rat heart mitochondria (Q06647 24-213 partner): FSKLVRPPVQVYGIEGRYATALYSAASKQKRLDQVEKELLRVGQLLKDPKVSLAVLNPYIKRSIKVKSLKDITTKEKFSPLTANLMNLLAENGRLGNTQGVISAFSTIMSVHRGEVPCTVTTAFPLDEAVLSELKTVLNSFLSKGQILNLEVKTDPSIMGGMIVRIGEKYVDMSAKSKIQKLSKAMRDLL

Turning to `C[C@H](CS)C(=O)N1CCC[C@H]1C(=O)O` [captopril], the inhibition at 450 µM (read-out: % inhibition at 0.45 mmol/l) came to 97.4%.

Regarding `COC(=O)C1=C(C)NC(C)=C(C(=O)OC)C1c1ccccc1[N+](=O)[O-]` [nifedipine], the inhibition at 15 µM (read-out: % inhibition at 0.015 mmol/l) amounted to 33%.
